From ChEMBL document CHEMBL4316586, “A comprehensive review of salinomycin derivatives as potent anticancer and anti-CSCs agents” (Eur J Med Chem, 2019) come the findings set out here.

Structures are written as SMILES. pIC50: −log10 of the molar value.

The test system of one test is 4T1. Briefly: Antiproliferative activity against mouse 4T1 cells by MTT assay. Format: functional, cell-based.
For test [1], the system named is JIMT-1. Briefly: Antiproliferative activity against human JIMT1 cells. The class given is functional, cell-based.
For test [2], the system named is MCF7. Briefly: Antiproliferative activity against human MCF7 cells. The class given is functional, cell-based.
Test [3] relates to JIMT-1. The experiment in a line: Antiproliferative activity against human JIMT1 cells after 72 hrs by MTT assay. The class given is functional, cell-based. The following applies: JIMT-1, 72 h.
Test [4] concerns HCC1937. Briefly: Antiproliferative activity against human HCC1937 cells after 72 hrs by MTT assay. The class given is functional, cell-based. The following applies: HCC1937, 72 h.
Test [5] has as its system HCC1937. The experiment in a line: Antiproliferative activity against human HCC1937 cells. The class given is functional, cell-based.
Test [6] relates to MCF7. Briefly: Antiproliferative activity against human MCF7 cells by SRB assay. Format: functional, cell-based.
Another test deals with LoVo. The experiment in a line: Antiproliferative activity against human LoVo cells by SRB assay. The class given is functional, cell-based.
The nature of test [7]: Antiproliferative activity against human LoVo/DX cells by SRB assay. Format: functional, cell-based.
For test [8], the system named is JIMT-1. The experiment in a line: Antiproliferative activity against human JIMT1 cells by SRB assay. Format: functional, cell-based.
The test system of a further test is SK-BR-3. The experiment in a line: Antiproliferative activity against human SKBR3 cells by SRB assay. Format: functional, cell-based.
In another test the test system is MCF-10A. The experiment in a line: Antiproliferative activity against human MCF10A cells by SRB assay. The class given is cell-based.
A further test deals with HT-29. The experiment in a line: Antiproliferative activity against human HT-29 cells after 48 hrs by MTT assay. Format: functional, cell-based. The following applies: HT-29, 48 h.
Test [9] has as its system HGC-27. The experiment in a line: Antiproliferative activity against human HGC27 cells after 48 hrs by MTT assay. The class given is functional, cell-based. The following applies: HGC-27, 48 h.
Test [10] deals with MDA-MB-231. Briefly: Antiproliferative activity against human MDA-MB-231 cells after 48 hrs by MTT assay. The class given is functional, cell-based. The following applies: MDA-MB-231, 48 h.
The subject of test [11] is HGC-27. Briefly: Antiproliferative activity against human HGC27 cells by MTT assay. The class given is functional, cell-based.
Test [12] relates to MDA-MB-231. The experiment in a line: Antiproliferative activity against human MDA-MB-231 cells by MTT assay. The class given is functional, cell-based.
Test [13] deals with JIMT-1. Briefly: Antiproliferative activity against human JIMT1 cells by MTT assay. The class given is functional, cell-based.
Test [14] has as its system MCF7. The experiment in a line: Antiproliferative activity against human MCF7 cells by MTT assay. The class given is functional, cell-based.
Another test relates to U-87 MG. Briefly: Antiproliferative activity against human U87 cells by MTT assay. Format: functional, cell-based, U-87MG ATCC.
The next test deals with HeLa. The experiment in a line: Antiproliferative activity against human HeLa cells by MTT assay. Format: functional, cell-based.
For the next test, the system named is Caco-2. The experiment in a line: Antiproliferative activity against human Caco2 cells by MTT assay. The class given is functional, cell-based.
Test [15] is described as follows: Antiproliferative activity against HMLER cells by MTT assay Breast cancer stem cell. Format: functional, cell-based. The following applies: Homo sapiens.
For test [16], the system named is MDA-MB-231. Briefly: Antiproliferative activity against human MDA-MB-231 cells by SRB assay. Format: functional, cell-based.

In the test on 4T1, `CC[C@@H](C(=O)[C@@H](C)[C@@H](O)[C@H](C)[C@@H]1O[C@@H]([C@@H](CC)C(=O)O)CC[C@@H]1C)[C@H]1O[C@]2(C=C[C@H](n3cc(-c4ccc(Br)cc4)nn3)[C@]3(CC[C@@](C)([C@H]4CC[C@](O)(CC)[C@H](C)O4)O3)O2)[C@H](C)C[C@@H]1C` showed a pIC50 of 5.43.

For `CC[C@@H]([C@H](O)[C@@H](C)[C@@H](O)[C@H](C)[C@@H]1O[C@@H]([C@@H](CC)C(=O)O)CC[C@@H]1C)[C@H]1O[C@]2(C=C[C@@H](O)[C@]3(CC[C@@](C)([C@H]4CC[C@](O)(CC)[C@H](C)O4)O3)O2)[C@H](C)C[C@@H]1C`, the pIC50 in the test with JIMT-1 [1] is 4.81; in the test with MCF7 [2], 4.90.

As for `CC[C@@H](C(=O)[C@@H](C)[C@@H](O)[C@H](C)[C@@H]1O[C@@H]([C@@H](CC)C(=O)O)CC[C@@H]1C)[C@H]1O[C@]2(CC[C@@H](O)[C@]3(CC[C@@](C)([C@H]4CC[C@](O)(CC)[C@H](C)O4)O3)O2)[C@H](C)C[C@@H]1C`, the pIC50 is 6.00 with JIMT-1 [1] and 6.05 in the test on MCF7 [2].

Compound `CC[C@@H](C(=O)[C@@H](C)[C@@H](O)[C@H](C)[C@@H]1O[C@@H]([C@@H](CC)C(=O)O)CC[C@@H]1C)[C@H]1O[C@]2(C=C[C@H](n3cc(-c4ccccc4C(=O)OC)nn3)[C@]3(CC[C@@](C)([C@H]4CC[C@](O)(CC)[C@H](C)O4)O3)O2)[C@H](C)C[C@@H]1C` showed a pIC50 in the test with 4T1 of 5.42.

Consider `CC[C@@H](C(=O)[C@@H](C)[C@@H](O)[C@H](C)[C@@H]1O[C@@H]([C@@H](CC)C(=O)O)CC[C@@H]1C)[C@H]1O[C@]2(CCC[C@]3(CC[C@@](C)([C@H]4CC[C@](O)(CC)[C@H](C)O4)O3)O2)[C@H](C)C[C@@H]1C`, for which the pIC50 in the test with JIMT-1 [3] is 5.68; in the test on HCC1937 [4], less than 5.00.

For `CC[C@@H](C(=O)[C@@H](C)[C@@H](O)[C@H](C)[C@@H]1O[C@@H]([C@@H](CC)C(=O)O)CC[C@@H]1C)[C@H]1O[C@]2(CCC(=O)[C@]3(CC[C@@](C)([C@H]4CC[C@](O)(CC)[C@H](C)O4)O3)O2)[C@H](C)C[C@@H]1C`, the pIC50 in the test with JIMT-1 [1] was 5.57; in the test on MCF7 [2] it was 5.51.

Regarding `CC[C@@H]([C@@H](O)[C@@H](C)[C@@H](O)[C@H](C)[C@@H]1O[C@@H]([C@@H](CC)C(=O)O)CC[C@@H]1C)[C@H]1O[C@]2(C=C[C@@H](O)[C@]3(CC[C@@](C)([C@H]4CC[C@](O)(CC)[C@H](C)O4)O3)O2)[C@H](C)C[C@@H]1C`, the pIC50 in the test with JIMT-1 [1] was 4.90; in the test on MCF7 [2], 4.86.

`CC[C@@H](C(=O)[C@@H](C)[C@@H](O)[C@H](C)[C@@H]1O[C@@H]([C@@H](CC)C(=O)O)CC[C@@H]1C)[C@H]1O[C@]2(C=CC[C@]3(CC[C@@](C)([C@H]4CC[C@](O)(CC)[C@H](C)O4)O3)O2)[C@H](C)C[C@@H]1C`: the pIC50 in the test with JIMT-1 [3] is 5.76; with HCC1937 [4], less than 5.00.

`CC[C@@H](C(=O)[C@@H](C)[C@@H](O)[C@H](C)[C@@H]1O[C@@H]([C@@H](CC)C(=O)OCC[Si](C)(C)C)CC[C@@H]1C)[C@H]1O[C@]2(C=C[C@@H](O)[C@]3(CC[C@@](C)([C@H]4CC[C@](O)(CC)[C@H](C)O4)O3)O2)[C@H](C)C[C@@H]1C` had a negative-log IC50 (pIC50) in the test with HCC1937 [5] of 5.36.

Turning to `CC[C@@H](C(=O)[C@@H](C)[C@@H](O)[C@H](C)[C@@H]1O[C@@H]([C@@H](CC)C(=O)O)CC[C@@H]1C)[C@H]1O[C@]2(C=C[C@@H](OC(=O)c3ccc(C(=O)O[C@@H]4C=C[C@]5(O[C@H]([C@@H](CC)C(=O)[C@@H](C)[C@@H](O)[C@H](C)[C@@H]6O[C@@H]([C@@H](CC)C(=O)O)CC[C@@H]6C)[C@@H](C)C[C@H]5C)O[C@@]45CC[C@@](C)([C@H]4CC[C@](O)(CC)[C@H](C)O4)O5)cc3)[C@]3(CC[C@@](C)([C@H]4CC[C@](O)(CC)[C@H](C)O4)O3)O2)[C@H](C)C[C@@H]1C`, the pIC50 in the test with MCF7 [6] is 5.74; in the test on LoVo, 5.92; in test [7] it was 5.55; with JIMT-1 [8], 5.62; in the test on SK-BR-3, 6.00; in the test with MCF-10A, 4.68.

As for `CC[C@@H](C(=O)[C@@H](C)[C@@H](O)[C@H](C)[C@@H]1O[C@@H]([C@@H](CC)C(=O)O)CC[C@@H]1C)[C@H]1O[C@@]2(C=C[C@@H](O)[C@@]3(CC[C@@](C)([C@H]4CC[C@](O)(CC)[C@H](C)O4)O3)O2)[C@H](C)C[C@@H]1C`, the pIC50 is 6.12 in the test on HT-29, 6.21 in the test with HGC-27 [9] and 5.24 in the test with MDA-MB-231 [10].

Turning to `CC[C@@H](C(=O)[C@@H](C)[C@@H](O)[C@H](C)[C@@H]1O[C@@H]([C@@H](CC)C(=O)O)CC[C@@H]1C)[C@H]1O[C@]2(C=C[C@@H](O)[C@]3(CC[C@@](C)([C@H]4CC[C@](O)(CC)[C@H](C)O4)O3)O2)[C@H](C)C[C@@H]1C` [SALINOMYCIN], the pIC50 in the test on HGC-27 [11] was 5.59; with MDA-MB-231 [12], 5.16; in the test on JIMT-1 [13], 6.28; in the test with MCF7 [14] it was 6.23; with U-87 MG, 4.41; in the test with HeLa it was 6.49. For the same compound, the pIC50 is 4.89 in the test on Caco-2; 7.00 in test [15]; 6.28 with JIMT-1 [1]; 5.49 in the test on HT-29; 5.09 in the test on HGC-27 [9]; less than 5.00 in the test with MDA-MB-231 [10]. For the same compound, the pIC50 with MDA-MB-231 [16] was 5.19; in test [7] it was 6.16.
